In EP0182135A2, “Novel bis-(substituted amino) anthraquinones” (AMERICAN CYANAMID COMPANY, priority 1984, dated 1986):
Structures can show the parent of a compound that is named as a salt.

Tests used:
[1] = system: lymphocytic leukemia P388; assay: Lymphocytic Leukemia P388 Test; format: in vivo, DBA/2 mice
Experimental: Lymphocytic Leukemia P388 Test
The animals used were DBA/2 mice all of one sex, weighing a minimum of 17 g and all within a 3 g weight range. There were 5 or 6 animals per test group. The tumor transplant was by intraperitoneal injection of 0.1 ml of dilute ascitic fluid containing 10^6 cells of lymphocytic leukemia P388. The test compounds were administered intraperitoneally on days 1, 5 and 9 (relative to tumor inoculation) at various doses. The animals were weighed and survivors were recorded on a regular basis for 30 days. The median survival time and the ratio of survival time for treated (T)/control (C) animals were calculated. The positive control compound was 1,4-dihydroxy-5,8-bis--[ [2-(2-hydroxyethylamino)ethyl ]amino]anthraquinone, dihydrochloride (U.S. Patent 4,197,249) given at the indicated doses by injection.

melanotic melanoma B16 = assay: Melanotic Melanoma B16 Test; format: in vivo, C57BC/6 mice
Experimental: The animals used were C57BC/6 mice, all of the same sex, weighing a minimum of 17 g and all within a 3 g weight range. There were normally 10 animals per test group. A 1.0 g portion of melanotic melanoma B16 tumor was homogenized in 10 ml of cold balanced salt solution and a 0.5 ml aliquot of the homogenate was implanted intraperitoneally into each of the test mice. The test compounds were administered intraperitoneally on days one through nine (relative to tumor inoculation) at various doses. The animals were weighed and survivors recorded on a regular basis for 60 days. The median survival time and the ratio of survival time for treated (T)/control (C) animals were calculated. The positive control compound was 1,4-dihydroxy-5,8-bis[[2-(2-hydroxyethylamino)-ethyl]amino]anthraquinone, dihydrochloride (U.S. Patent 4,197,249) given at the indicated doses by injection.

[2] = Dose 3 mg/kg intraperitoneally on days 1, 5 and 9
[3] = Dose 12 mg/kg intraperitoneally on days 1, 5 and 9
[4] = Dose 50 mg/kg intraperitoneally on days 1, 5 and 9
[5] = Dose 200 mg/kg intraperitoneally on days 1, 5 and 9
[6] = Dose 0.8 mg/kg intraperitoneally on days one through nine
[7] = Dose 3 mg/kg intraperitoneally on days one through nine
[8] = Dose 12 mg/kg intraperitoneally on days one through nine
[9] = Dose 50 mg/kg intraperitoneally on days one through nine
[10] = Dose 3 mg/kg intraperitoneally on days 1, 5 and 9, dihydrochloride, 3 mg/kg
[11] = Dose 12 mg/kg intraperitoneally on days 1, 5 and 9, dihydrochloride, 12 mg/kg
[12] = Dose 50 mg/kg intraperitoneally on days 1, 5 and 9, dihydrochloride, 50 mg/kg
[13] = Dose 3 mg/kg intraperitoneally on days 1, 5 and 9, 3 mg/kg
[14] = Dose 12 mg/kg intraperitoneally on days 1, 5 and 9, 12 mg/kg
[15] = Dose 50 mg/kg intraperitoneally on days 1, 5 and 9, 50 mg/kg
[16] = Dose 25 mg/kg intraperitoneally on days one through nine
[17] = Dose 100 mg/kg intraperitoneally on days one through nine
[18] = Dose 0.025 mg/kg intraperitoneally on days 1, 5 and 9
[19] = Dose 0.1 mg/kg intraperitoneally on days 1, 5 and 9
[20] = Dose 0.4 mg/kg intraperitoneally on days 1, 5 and 9
[21] = Dose 1.6 mg/kg intraperitoneally on days 1, 5 and 9
[22] = Dose 6.4 mg/kg intraperitoneally on days 1, 5 and 9
[23] = Dose 0.05 mg/kg intraperitoneally on days one through nine
[24] = Dose 0.2 mg/kg intraperitoneally on days one through nine
[25] = Dose 0.8 mg/kg intraperitoneally on days 1, 5 and 9

Row | Compound | Median Survival [1, 2] | T/C x 100 (%) [1, 2] | Median Survival [1, 3] | T/C x 100 (%) [1, 3] | Median Survival [1, 4] | T/C x 100 (%) [1, 4] | Median Survival [1, 5] | T/C x 100 (%) [1, 5] | Median Survival (melanotic melanoma B16; [6]) | T/C x 100 (%) (melanotic melanoma B16; [6]) | Median Survival (melanotic melanoma B16; [7]) | T/C x 100 (%) (melanotic melanoma B16; [7]) | Median Survival (melanotic melanoma B16; [8]) | T/C x 100 (%) (melanotic melanoma B16; [8]) | Median Survival (melanotic melanoma B16; [9]) | T/C x 100 (%) (melanotic melanoma B16; [9]) | Median Survival (melanotic melanoma B16; [16]) | T/C x 100 (%) (melanotic melanoma B16; [16]) | Median Survival (melanotic melanoma B16; [17]) | T/C x 100 (%) (melanotic melanoma B16; [17]) | also measured
1 | COC(=O)C(=O)NCCNc1ccc(NCCNC(=O)C(=O)OC)c2c1C(=O)c1c(O)ccc(O)c1C2=O [2,2[(9-10-Dihydro-5,8-dihydroxy-9,10-dioxo-1,4-anthracenediyl)bis(imino-2,1-ethanediylimino)]-bis[2-oxoacetic acid]dimethyl ester] | 16 days | 145% | 19.5 days | 177% | 20.5 days | 186% | 23 days | 209% | 23.5 days | 155% | 26.5 days | 129% | 31.5 days | 154% | >60 days | >293% | – | – | – | – | –
2 | CN(C)CCCNC(=S)N(CCO)CCNc1ccc(NCCN(CCO)C(=S)NCCCN(C)C)c2c1C(=O)c1c(O)ccc(O)c1C2=O [N,N"-[(9,10-Dihydro-5,8-dihydroxy-9,10-dioxo-1,4-anthracenediyl)bis(imino-2,1-ethanediyl)]bis[N'-[3-(dimethylamino)propyl]-N-(2-hydroxyethyl)]thiourea, dihydrochloride] | – | – | – | – | – | – | – | – | 24.5 days | 114% | 33.5 days | 156% | >60 days | >279% | – | – | – | – | – | – | Median Survival [1, 10]: 15 days; T/C x 100 (%) [1, 10]: 136%; Median Survival [1, 11]: 19.5 days; T/C x 100 (%) [1, 11]: 177%; Median Survival [1, 12]: 22.5 days; T/C x 100 (%) [1, 12]: 205%
3 | CN(C)CCCNC(=S)N(CCO)CCNc1ccc(NCCN(CCO)C(=S)NCCCN(C)C)c2c1C(=O)c1c(O)ccc(O)c1C2=O [N,N"-[(9,10-Dihydro-5,8-dihydroxy-9,10-dioxo-1,4-anthracenediyl)bis(imino-2,1-ethanediyl)]bis[N'-[3-(dimethylamino)propyl]-N-(2-hydroxyethyl)]thiourea] | – | – | – | – | – | – | 23 days | 219% | – | – | – | – | – | – | – | – | 27.5 days | 146% | 42 days | 222% | Median Survival [1, 13]: 13 days; T/C x 100 (%) [1, 13]: 124%; Median Survival [1, 14]: 13.5 days; T/C x 100 (%) [1, 14]: 129%; Median Survival [1, 15]: 19.5 days; T/C x 100 (%) [1, 15]: 186%
4 | O=C1c2c(OC(=O)C(F)(F)F)ccc(OC(=O)C(F)(F)F)c2C(=O)c2c(N(CCN(CCOC(=O)C(F)(F)F)C(=O)C(F)(F)F)C(=O)C(F)(F)F)ccc(N(CCN(CCOC(=O)C(F)(F)F)C(=O)C(F)(F)F)C(=O)C(F)(F)F)c21 [N,N'-(5,8-Dihydroxy-l,4-anthraquinonylene)bis[2,2,2-trifluoro-N-[2,(2,2,2-trifluoro-N-2-hydroxyethyl-acetamido)ethyl]acetamide]tetrakis(trifluoroacetate) (tetraester)] | – | – | – | – | – | – | – | – | 34 days | 166% | >52 days | >254% | 42 days | 205% | – | – | – | – | – | – | Median Survival [1, 18]: 13.5 days; T/C x 100 (%) [1, 18]: 117%; Median Survival [1, 19]: 16 days; T/C x 100 (%) [1, 19]: 139%; Median Survival [1, 20]: 15 days; T/C x 100 (%) [1, 20]: 130%; Median Survival [1, 21]: 19.5 days; T/C x 100 (%) [1, 21]: 170%; Median Survival [1, 22]: 26.5 days; T/C x 100 (%) [1, 22]: 230%; Median Survival (melanotic melanoma B16; [23]): 27 days; T/C x 100 (%) (melanotic melanoma B16; [23]): 132%; Median Survival (melanotic melanoma B16; [24]): 27 days; T/C x 100 (%) (melanotic melanoma B16; [24]): 132%
5 | CC(=O)OCCN(CCNc1ccc(NCCN(CCOC(C)=O)C(C)=O)c2c1C(=O)c1c(O)ccc(O)c1C2=O)C(C)=O [N,N'-[5,8-Dihydroxyl,4-anthraquinonylene-bis(imino-ethylene)]bis[N-2-hydroxyethylacetamide-2,2'diacetate]] | 10 days | 105% | 14 days | 147% | 16 days | 168% | 17 days | 179% | 21.5 days | 106% | 21.5 days | 106% | 20.5 days | 101% | 21.5 days | 106% | – | – | – | – | Median Survival [1, 25]: 11 days; T/C x 100 (%) [1, 25]: 116%
6 | CC(=O)C(=O)NCCNc1ccc(NCCNC(=O)C(C)=O)c2c1C(=O)c1c(O)ccc(O)c1C2=O [N,N'-[9,10-Dihydro-5,8-dihydroxy-9,10-dioxo-1,4-anthracenediyl)bis(imino-2,1-ethanediyl)]bis-[2-oxopropanamide]] | – | – | – | – | 13.5 days | 123% | 16.5 days | 150% | – | – | – | – | – | – | 41 days | 171% | 43.5 days | 182% | 38 days | 158% | –
